Experimental data: US10633408B2, “Nucleoside-lipid compounds with pH-sensitive dialkylorthoester chains and their use for transportation or vectorization of at least one therapeutic agent” (UNIVERSITE DE BORDEAUX, priority 2015, dated 2020)

Key:
[1] = DLS of nucleolipid/DOPE liposomes and siRNA complexes; assay type: physicochemical; settings: for size of siRNA complexes with siRNA RECQL4 / size of siRNA complexes with siRNA luciferase: 10 pmol siRNA + 2 nmol nucleolipid/DOPE, serum-free medium; for diameter of liposomes: nucleolipid/DOPE liposomes in water
Description: (§1) Compound 6 and DOPE were mixed with molar ratio and dissolved in methylene chloride. The solvent was evaporated with nitrogen flow while stirring to prepare lipids films. This preparation was rehydrated with 1 mL of water, them submitted to Vortex, and the tube was put in ultrasonic bath (37 kHz) during 15-20 min at 15° C. The same experiment was carried out with DOTAU/DOPE (1:1) Liposomes were analysed by DLS (Malvern, Zetasizer) and measured 74 nm of diameters for orthoester and 48 nm for DOTAU. 10 pmol of siRNA were added to 2 nmol of orthoester/DOPE in 100 μL of PRMI 1640 serum-free medium. After submitting to Vortex, this solution was incubated 20 min at RT and transferred in wells. The siRNA orthoester/DOPE complexes were analysed by DLS and measured at 90 nm with siRNA luciferase and at 100 nm with siRNA RECQL4 for orthoester (69 nm and 63 nm, respectively for DOTAU).

RECQL4 = test: Inhibition of RECQL4 by siRNA transfection, qPCR normalized with GAPDH; assay type: cell-based, human; settings: MDA-MB-134 breast cancer cells, 72 h, nucleolipid/DOPE complexes, N/P 1/5 and 1/10
Description: as §1, with “RECQL4 is a human RecQ helicase implicated in three syndromes (Rothmund-Thompson, […] and Baller-Gerold) displaying accelerating aging, developmental abnormalities and cancer's predisposition. […] In this example, the efficacy of compound 6 prepared in example 2 in the transfection of siRNA targeting RECQL4 is evaluated. Compound” for “Compound”, “(1:1)” for “(1:1) Liposomes were analysed by DLS (Malvern, Zetasizer) and measured 74 nm of diameters for orthoester and 48 nm for DOTAU.”, “DOTAU). 2.10^5 MDA-MB-134 cells by well were added in 500 μL final volume. […] RNA was converted in cDNA by Reverse Transcription with QuantiTect kit (Qiagen). Then, a quantitative PCR was performed with 25 ng of cDNA, the master mix GoTaq qPCR (Promega) and specific primers (1 μM). […]” for “DOTAU).”

[2] = Liposome characterization by dynamic light scattering and zeta potential; assay type: physicochemical; settings: liposomes of the compound alone, 1 mg/mL in Milli-Q water; for Pdi (polydispersity) of liposomes / d (diameter) of liposomes: DLS
Description: Zeta potential measurements and Dynamic light scattering (DLS) measurements of liposomes were performed with a MalvernNanoZS device.
100 μL of stock solutions of anionic or cationic compounds of formula (I) prepared in examples 2 and 6 (10 mg/mL in dichloromethane) were placed in glass tubes, dried under dry N2 and then desiccated under vacuum. Milli-Q Water was added to the dried lipid to obtain liposomes dispersions (1 mg/mL) after vortex agitation and sonication for 10 min.
The size distribution by intensity measured by dynamic light scattering (DLS) of liposomes prepared from compound 11 prepared in example 6 (anionic compounds of formula (I)) is shown on FIG. 3A, and of liposomes prepared from compound 6 prepared in example 2 (cationic compound of formula (I)) is shown on FIG. 3B.

[3] = 1H NMR kinetic study of orthoester hydrolysis; assay type: physicochemical; settings: for rate of hydrolysis of the orthoester function, effect of pH: MeOD:phosphate buffer (1:2), pH 5 vs 7.4, 37° C.
Description: 1HNMR experiments were performed to study the kinetics of hydrolysis for both anionic and cationic compounds of formula (I) at pH 5 and 7.4 by measuring the percentage of hydrolyzed compound versus time.
10 mg of cationic compound (6) prepared in example 2 or anionic compound (11) prepared in example 6 were dissolved in a mixture of MeOD:Buffer phosphate (1:2) (pH 5 or 7.4), mixed and placed in a NMR tube. ^1H NMR Experiment was performed at 37° C. at 300 MHz on a BRUKER® Avance DPX-300.
After hydrolysis of the orthoester function, the chemical shifts of the thymidine CH3 protons are shifted upfield and downfield for compound 6 and 11, respectively. Thus, the percentage of hydrolysis versus time was followed by integrating the signals of the CH3 protons.

[4] = Small-angle X-ray scattering (SAXS) of compound 6/DOPC; assay type: physicochemical; settings: with DOPC (mol ratio 50/50), incubation at pH=5 and 37° C.
Description: […] SAXS experiments were carried out at the Centre de Recherche Paul Pascal, Pessac, France on a NanoStar (Bruker). With a sample to detector distance equal to 650 mm and a radiation wavelength of A=0.154 nm, the scattering wave vectors in reciprocal space ranged from q=0.16 nm^−1 and 3.4 nm^−1.
The beam size at the sample position was 0.45 mm (0). Images were captured by the HiStar (Bruker).
The array of detection totalizes 1024×1024 pixels, each one with 100 μm for side. Data were radially averaged and corrected for background scattering by using the software SAXS-Bruker. All experiments were carried out on thermally equilibrated samples at 25° C., which was obtained by keeping the sample holders under water circulation at controlled temperature.

For `CCCCCCCCCCCCCCCCOC(OCCCCCCCCCCCCCCCC)O[C@H]1C[C@H](n2cc(C)c(=O)[nH]c2=O)O[C@@H]1C[N+](C)(C)C.CS(=O)(=O)[O-]` [Compound 6, 1-((2R,3S,5R)-3-(bis(hexadecyloxy)methoxy)-5-(5-methyl-2,4-dioxo-3,4-dihydropyrimidin-1 (2H)-yl)tetrahydrofuran-2-yl)-N,N,N-trimethyl-methanaminium methanesulfonate], which “size of siRNA complexes with siRNA RECQL4” value [1] is on record?
The value was 100 nm.

What about the “size of siRNA complexes with siRNA luciferase” value [1] of the same compound?
Its value is 90 nm.

What about the diameter of liposomes [1] of the same compound?
Its diameter of liposomes is 74 nm.

And the “expression of RECQL4 after siRNA transfection” value (RECQL4)?
The value was “able to inhibit the expression of RECQL4”.

And the “ζ (zeta potential) of liposomes” value [2]?
Its value is 51.4 mV.

What about the “Pdi (polydispersity) of liposomes” value [2] of the same compound?
Its value is 0.221.

What about the “d (diameter) of liposomes” value [2] of the same compound?
The value was 135.9 nm.

And the “rate of hydrolysis of the orthoester function, effect of pH” value [3]?
Its value is “higher rates of hydrolysis at pH=5”.

And the “SAXS profile before and after incubation” value [4]?
The value was “evolves from vesicular to multilamellar systems”.

For `CCCCCCCCCCCCCCCCOC(OCCCCCCCCCCCCCCCC)O[C@H]1C[C@H](n2cc(C)c(=O)[nH]c2=O)O[C@@H]1COP(=O)(O)OC` [Compound 11, ((2R,3S,5R)-3-(bis(hexadecyloxy)methoxy)-5-(5-methyl-2,4-dioxo-3,4-dihydropyrimidin-1(2H)-yl)tetrahydrofuran-2-yl)methyl methyl phosphate], which “ζ (zeta potential) of liposomes” value [2] is on record?
Its value is −43.3 mV.

And the “Pdi (polydispersity) of liposomes” value [2]?
Its value is 0.163.

And the “d (diameter) of liposomes” value [2]?
The value was 100.4 nm.

And the “rate of hydrolysis of the orthoester function, effect of pH” value [3]?
The value was “higher rates of hydrolysis at pH=5”.

And the “rate of hydrolysis relative to cationic compound 6” value ([3]; at both pH 5 and 7, 37° C.)?
The value was “increased hydrolysis rates”.

Which results are given for `CCCCCCCC/C=C\CCCCCCCC(=O)OC1C(C[N+](C)(C)C)OC(n2ccc(=O)[nH]c2=O)C1OC(=O)CCCCCCC/C=C\CCCCCCCC.Cc1ccc(S(=O)(=O)[O-])cc1` (stereo not drawn) [DOTAU, N-[5′-(2′,3′-dioleoyl)uridine]-N′,N′,N′-trimethylammonium tosylate, reference compound]?
size of siRNA complexes with siRNA RECQL4 [1]: 63 nm; size of siRNA complexes with siRNA luciferase [1]: 69 nm; diameter of liposomes [1]: 48 nm; expression of RECQL4 after siRNA transfection (RECQL4): not able to transfect the siRNA targeting RECQL4
